Results: paper PMC8080777, “Discovery, optimization, and evaluation of non-bile acid FXR/TGR5 dual agonists” (Scientific Reports, 2021)
pEC50: −log10 of the molar value.

What was measured:
Pharmacokinetics in rats = format: in vivo, Sprague-Dawley rats; settings: for Cmax / half-life / CLtot: n=3; for AUC: n=3, AUC0-24h; for Plasma exposure (in words): oral dose of 3 mg/kg; for CLtot: p.o.
Procedure: S3. Supplementary Table S1. Pharmacokinetic properties of 20p and 20q after oral administration […]
Determination of Drug Pharmacokinetics in Sprague-Dawley rats.
Blood samples (about 200 µl) were obtained from the jugular vein at 0.083 (intravenous only), 0.25, 0.5, 1, 2, 4, 8, and 24 hours from 16-hour fasted rats. Plasma was obtained from the blood samples by centrifugation at 3000 rpm for 10 minutes at 4 °C. Plasma were deproteinated and centrifuged at 3000 rpm for 10 minutes at 4 °C. Drug concentrations were measured using LC - MSMS (Triple Quad 4500; […]). Area under the plasma concentration -time curve at 0–24h (AUC0–24h) were calculated using the trapezoidal rule. pharmacokinetic parameters were calculated using the Phoenix WinNonlin 6.4 software (Certara […]

OGTT blood glucose = format: in vivo; settings: single oral 100 mg/kg, overnight-fasted C57 mice, 2 g/kg glucose one hour later, blood 15 min after loading
Procedure: (§1) To measure blood glucose levels, 100 mg/kg of test compounds 20p and 20q or vehicle were administered orally to overnight-fasted C57 mice (n = 5 mice/group, control; n = 10). One hour later, all mice were challenged with 2 g/kg glucose, and blood samples were collected after 15 min of glucose loading. The blood glucose levels were measured using LabAssay Glucose (FUJIFILM Wako Pure Chemical Corporation, Osaka City, Osaka, Japan)[56].
(§2) Amersham Place Little Chalfont Buckinghamshire, HP7 9NA UK), and cDNA was synthesized using ReverTra Ace qPCR RT Master Mix (Toyobo Co., Ltd., Osaka City, Osaka, Japan). Real-time PCR was performed using a CFX96 Touch Real-Time PCR Analysis System (CFX Manager, Bio-Rad, 1000 Alfred Nobel Drive, Hercules, CA, USA), and the mRNA expression levels of SHP and CYP7A1, the target gene s of FXR, were measured using the intercalator […]
(§3) In vivo assay protocol (GLP-1)
(§4) Measurement of GLP-1 secretion: To measure plasma GLP-1 levels, 100 mg/kg of compounds 20p and 20q were administered orally to overnight -fasted C57 mice (n=5 animals/group). One hour later, all mice were challenged with 2 g/kg glucose, and blood samples were collected after 15 min of glucose challenge test. Plasma GLP-1 levels were measured using the GLP-1 ELISA Kit Wako, High Sensitive (FUJIFILM Wako Pure Chemical Corporation, Osaka city, Osaka, […]
In vivo assay protocol (OGTT test) […]

TGR5 = target: T1, TGR5 (Homo sapiens, UniProt Q8TDU6); assay: TGR5 cAMP assay in CHO cells transfected with TGR5 (cAMP Hunter eXpress, Discover X); format: cell-based; settings: for TGR5 Efficacy (%) (1 µM) / TGR5 Efficacy (%) (10 µM): % vs INT-767 10 µM as 100%; for pEC50: 4 parameter logistic fit
T1 construct: host or cells: CHO cells
T1 sequence (Q8TDU6 1-330): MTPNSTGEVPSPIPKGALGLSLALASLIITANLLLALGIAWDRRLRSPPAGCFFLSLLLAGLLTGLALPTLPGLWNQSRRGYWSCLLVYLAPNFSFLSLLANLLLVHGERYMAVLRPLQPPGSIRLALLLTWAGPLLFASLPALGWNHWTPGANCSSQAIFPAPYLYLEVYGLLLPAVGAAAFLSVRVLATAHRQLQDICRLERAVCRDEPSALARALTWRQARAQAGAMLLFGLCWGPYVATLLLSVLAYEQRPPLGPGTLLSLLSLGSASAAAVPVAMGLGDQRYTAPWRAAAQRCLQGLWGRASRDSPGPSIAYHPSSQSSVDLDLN

GLP-1 = assay: In vivo GLP-1 secretion after glucose challenge; parameters: species or system C57 mice; settings: for Plasma GLP-1 levels: single oral 100 mg/kg, overnight-fasted C57 mice, 2 g/kg glucose one hour later, blood 15 min after challenge
Procedure: Measurement of GLP-1 secretion: To measure plasma GLP-1 levels, 100 mg/kg of compounds 20p and 20q were administered orally to overnight-fasted C57 mice (n = 5 animals/group). One hour later, all mice were challenged with 2 g/kg glucose, and blood samples were collected after 15 min of glucose challenge test. Plasma GLP-1 levels were measured using the GLP-1 ELISA Kit Wako, High Sensitive (FUJIFILM Wako Pure Chemical Corporation, Osaka city, Osaka, Japan)[56].
as §2, §3, §4
In vivo assay protocol (OGTT test)
as §1, with “(n=5” for “(n = 5”, “n=10).” for “n = 10).”, “Japan).5” for “Japan)[56].”
In vivo in-house animal guidelines
Study protocols were designed and refined by taking reduction of animal use into consideration. […]

[1] = Sprague-Dawley, rat, plasma, po, 3mg/kg
[2] = Sprague-Dawley, rat, plasma, iv, 3mg/kg

Compound | Cmax (Pharmacokinetics in rats; [1]) [ng/mL] | half-life (Pharmacokinetics in rats; [1]) [h] | AUC (Pharmacokinetics in rats; [1]) [ng·h/mL] | Plasma exposure (in words) (Pharmacokinetics in rats) | CLtot (Pharmacokinetics in rats; 3mg/kg) [mL/min/kg] | Blood glucose level on OGTT (OGTT blood glucose) | TGR5 agonist activity (in words) (TGR5) | TGR5 Efficacy (%) (1 µM) (TGR5) | TGR5 Efficacy (%) (10 µM) (TGR5) | pEC50 (TGR5) | Plasma GLP-1 levels (GLP-1) | Serum GLP-1 (GLP-1; single dose, wild-type mice) | Cmax (Pharmacokinetics in rats; [2]) [ng/mL] | half-life (Pharmacokinetics in rats; [2]) [h] | AUC (Pharmacokinetics in rats; [2]) [ng·h/mL] | clearance (Pharmacokinetics in rats; Sprague-Dawley, rat, plasma, iv, 3mg/kg, n=3, read-out: CLtot (converted)) [mL/min/kg]
COc1cc(Cl)cc(N(CC23CCC(c4ccc(OC)c(C#N)c4)(CC2)CC3)C(=O)c2ccncc2C)c1 [Compound 20p] | 50.3 | 1.45 | 121 | rather low plasma exposure | 426.93 | robustly lowered the blood glucose level | strong dual agonist potencies | 51.1 | 62.4 | 6.38 | significantly increased the plasma levels of GLP-1 |  |  |  |  | 
COC(=O)/C=C/c1cccc(N(Cc2ccc(-c3ccc(N(C)C)cc3)cc2)C(=O)C2CCCCC2)c1 [Compound 7, Fexaramine, reference compound] |  |  |  |  |  |  |  |  |  |  |  | did not increase serum GLP-1 |  |  |  | 
COc1ccc(C23CCC(CN(C(=O)c4ccncc4C)c4cc(Cl)cc(Cl)c4)(CC2)CC3)cc1C#N [Compound 20q] | 3.2 | 4.52 | 11 | rather low plasma exposure | 2652.33 | did not reduce the blood glucose level | strong dual agonist potencies | 51.2 | 80.2 | 6.10 | significantly increased the plasma levels of GLP-1 |  | 2580 | 5.04 | 1460 | 34.2
